Assays:
[1] = test system: SORHA; assay: Post-emergence greenhouse treatment, visual rating of herbicidal effect; type: in vivo, Sorghum halepense
Description: (§1) Seeds of grass and broadleaf weeds were sown in pots (diameter: 8 cm) filled with a sandy loam soil. For the herbicide post-emergent treatment, the weeds were grown under optimal conditions up to a growth stage of BBCH 11 (1-2 leaf stage) to 14 (3-4 leaf stage) depending on species. The following weeds were used:
(§2) The applications were performed by post emergence treatments on the planted pots using a spray volume of 300 L water per hectare. The herbicides were applied alone and in combination as in the tables below.
(§3) The trial was conducted in the greenhouse ensuring optimal growing conditions.
(§4) The herbicidal effects were assessed 14 and 24 days following application by visual ratings comparing treated and untreated plants (0%=no effect to 100%=complete die-off).
(§5) The visual ratings are used to calculate interactions between treatments alone and combination treatments according to S. R. Colby, Weeds 15, pages 20 to 22 (1967).

[2] = test system: EPHHL; assay: as above; type: in vivo, Euphorbia heterophylla
Description: as §1, §2, §3, §4, §5

[3] = test system: GLXMA Protina; assay: Post-emergence greenhouse treatment, visual rating of effect on conventional soybean PROTINA; type: in vivo; details: for Effect (%): GLXMA Protina
Description: (§6) The soybeans were grown under the same conditions as described above. The following three varieties were used in the tests:
(§7) 1) W336—Transgenic soybean plants comprising a chimeric gene encoding a W336 mutant HPPD protein of Pseudomonas fluorescens (U.S. Pat. No. 6,245,968) fused to the optimized transit peptide for chloroplast targeting (U.S. Pat. No. 5,510,471), and under the control of the 35S CaMV promoter (Odell et al., 1985, Nature 313: 810-812) fused to the 5′ enhancer sequence of TEV (Carrington and Freed, 1990, J. Virol. 64: 1590-1597), with as 3′ transcript termination and polyadenylation region that of the CaMV 35S gene (Sanfacon et al., 1991, Genes & Development 5:141-149), abbreviated as “W336 soybean plants” herein. 2) MERLIN—conventional 3) PROTINA—conventional
(§8) Two sets of soybeans reaching different growth stages at application time were prepared: one up to growth stage BBCH 11 (1-2 leaf stage) and the other up to BBCH 13 (3-4 leaf stage). Both soybean sets were treated at the same time (together with the weeds) but they were evaluated separately.
as §2, §3, §4, §5

[4] = test system: PHBPU; assay: Post-emergence greenhouse treatment, visual rating of herbicidal effect; type: in vivo, Pharbitis purpurea; details: 1-2 leaf, 24 d, 10 g a.i./ha alone
Description: as §1, §2, §3, §4, §5

[5] = test system: GLXMA Merlin; assay: Post-emergence greenhouse treatment, visual rating of effect on conventional soybean MERLIN; type: in vivo; details: for Effect: 3-4 leaf; for Effect (%): GLXMA Merlin, 1-2 leaf, assessment 24 d
Description: as §6, §7, §8, §2, §3, §4, §5

[6] = test system: BIDPI; assay: Post-emergence greenhouse treatment, visual rating of herbicidal effect; type: in vivo, Bidens pilosa; details: for Effect: 24 d
Description: as §1, §2, §3, §4, §5

[7] = test system: SETVI; assay: as above; type: in vivo, Setaria viridis; details: 1-2 leaf; for Effect (%): SETVI, assessment 24 d
Description: as §1, §2, §3, §4, §5

[8] = test system: POLCO; assay: as above; type: in vivo, Polygonum convolvulus; details: for Effect (%): POLCO
Description: as §1, §2, §3, §4, §5

[9] = test system: BRAPP; assay: as above; type: in vivo, Brachiaria platyphylla; details: for Effect (%): BRAPP
Description: as §1, §2, §3, §4, §5

[10] = test system: GLXMA GM_W336; assay: Post-emergence greenhouse treatment, visual rating of effect on W336 transgenic (HPPD inhibitor tolerant) soybean; type: in vivo; details: for Effect (%): GLXMA GM_W336
Description: as §6, §7, §8, §2, §3, §4, §5

[11] = test system: SETFA; assay: Post-emergence greenhouse treatment, visual rating of herbicidal effect; type: in vivo, Setaria faberi; details: 1-2 leaf
Description: as §1, §2, §3, §4, §5

[12] = 1-2 leaf, 24 d, 5 g a.i./ha alone
[13] = 3-4 leaf, 14 d, 5 g a.i./ha alone
[14] = 3-4 leaf, 14 d, 20 g a.i./ha alone
[15] = 1-2 leaf, 14 d, 20 g a.i./ha alone
[16] = 1-2 leaf, 24 d, 10 g a.i./ha alone
[17] = 1-2 leaf, 24 d, 20 g a.i./ha alone
[18] = 1-2 leaf, assessment 24 d, (A1) alone 2.5 g a.i./ha
[19] = 1-2 leaf, assessment 24 d, (A1) alone 5 g a.i./ha
[20] = 3-4 leaf, assessment 14 d, (A1) alone 5 g a.i./ha
[21] = 1-2 leaf, assessment 24 d, (A1) alone 10 g a.i./ha

## CS(=O)(=O)c1ccc(C(=O)C2C(=O)CCCC2=O)c([N+](=O)[O-])c1 [(A2), 2-(4-mesyl-2-nitrobenzoyl)cyclohexane-1,3-dione]
[1]; [12]
  Effect: 0%
[1]; [13]
  Effect: 0%
[1]; [14]
  Effect: 15%
[2]; [15]
  Effect: 30%
[2]; [16]
  Effect: 10%
[2]; [17]
  Effect: 10%
[3]; [15]
  Effect: 45%
[3]; [12]
  Effect: 15%
[3]; [16]
  Effect: 20%
[3]; [17]
  Effect: 40%
[3]; [14]
  Effect: 50%
[4]
  Effect: 75%
[5]; 14 d, 5 g a.i./ha alone
  Effect: 30%
[6]; 1-2 leaf, 20 g a.i./ha alone
  Effect: 20%
[7]; 24 d, 5 g a.i./ha alone
  Effect: 0%
[8]; [16]
  Effect: 20%
[8]; [13]
  Effect: 20%
[8]; [14]
  Effect: 65%
[9]; [15]
  Effect: 50%
[9]; [16]
  Effect: 25%
[9]; [17]
  Effect: 35%
[10]; [15]
  Effect: 20%
[10]; [12]
  Effect: 15%
[10]; [16]
  Effect: 15%
[10]; [17]
  Effect: 25%
[10]; [13]
  Effect: 15%
[10]; [14]
  Effect: 25%

## CS(=O)(=O)c1ccc(C(=O)C2C(=O)CCCC2=O)c(Cl)c1COCC(F)(F)F [(A1), 2-{2-chloro-4-mesyl-3-[(2,2,2-trifluoroethoxy)methyl]benzoyl}cyclohexane-1,3-dione]
[1]; SORHA, 1-2 leaf, assessment 24 d, (A1) alone 5 g a.i./ha
  Effect (%): 20%
[11]; SETFA, assessment 24 d, (A1) alone 2.5 g a.i./ha
  Effect (%): 0%
[3]; [18]
  Effect (%): 65%
[3]; [19]
  Effect (%): 75%
[3]; [20]
  Effect (%): 55%
[5]; (A1) alone 5 g a.i./ha
  Effect (%): 75%
[5]; (A1) alone 10 g a.i./ha
  Effect (%): 80%
[6]; BIDPI, 3-4 leaf, assessment 14 d, (A1) alone 5 g a.i./ha
  Effect (%): 10%
[7]; (A1) alone 5 g a.i./ha
  Effect (%): 40%
[7]; (A1) alone 10 g a.i./ha
  Effect (%): 40%
[8]; [18]
  Effect (%): 0%
[8]; [19]
  Effect (%): 0%
[8]; [20]
  Effect (%): 10%
[9]; [19]
  Effect (%): 10%
[9]; [21]
  Effect (%): 10%
[9]; [20]
  Effect (%): 25%
[10]; [18]
  Effect (%): 15%
[10]; [19]
  Effect (%): 15%
[10]; [21]
  Effect (%): 15%
[10]; [20]
  Effect (%): 20%

## COCCOCc1nc(C(F)(F)F)ccc1C(=O)C1=C(O)C2CCC(C2)C1=O (stereo not shown) [(A6), 4-hydroxy-3-{2-[(2-methoxyethoxy)methyl]-6-(trifluoromethyl)-3-pyridylcarbonyl}bicyclo[3.2.1]oct-3-en-2-one]
[1]; 1-2 leaf, 14 d, 5 g a.i./ha
  Effect: 0%
[11]; 14 d, 5 g a.i./ha
  Effect: 15%
[2]; 3-4 leaf, 24 d, 10 g a.i./ha
  Effect: 40%
[3]; 1-2 leaf, 14 d, 5 g a.i./ha
  Effect: 50%
[3]; 3-4 leaf, 14 d, 10 g a.i./ha
  Effect: 45%
[3]; 3-4 leaf, 14 d, 20 g a.i./ha
  Effect: 60%
[5]; 24 d, 10 g a.i./ha
  Effect: 50%
[5]; 24 d, 20 g a.i./ha
  Effect: 50%
[6]; 3-4 leaf, 20 g a.i./ha
  Effect: 30%
[8]; 3-4 leaf, 14 d, 10 g a.i./ha
  Effect: 50%
[8]; 3-4 leaf, 14 d, 20 g a.i./ha
  Effect: 50%
[8]; 3-4 leaf, 24 d, 10 g a.i./ha
  Effect: 35%
[9]; 3-4 leaf, 14 d, 10 g a.i./ha
  Effect: 15%
[9]; 3-4 leaf, 14 d, 20 g a.i./ha
  Effect: 25%
[9]; 3-4 leaf, 24 d, 20 g a.i./ha
  Effect: 15%
[10]; 1-2 leaf, 14 d, 5 g a.i./ha
  Effect: 5%
[10]; 3-4 leaf, 14 d, 10 g a.i./ha
  Effect: 25%
[10]; 3-4 leaf, 14 d, 20 g a.i./ha
  Effect: 30%
[10]; 3-4 leaf, 24 d, 10 g a.i./ha
  Effect: 25%
[10]; 3-4 leaf, 24 d, 20 g a.i./ha
  Effect: 30%
